Reference: patent US9283233B2, “Method for on-demand contraception” (LABORATOIRE HRA PHARMA, priority 2009, dated 2016)

Experiments:
[1] = Multiple intakes of ulipristal acetate within a menstrual cycle after declared intercourse (pregnancy outcome); format: in vivo; conditions: 30 mg after a declared intercourse, twice during a menstrual cycle; several women (5 in the table)
Protocol: Multiple Intakes of Ulipristal Acetate within a Menstrual Cycle
Several women received ulipristal acetate (30 mg) after a declared intercourse, twice during a menstrual cycle.

[2] = 3 months of continuous daily administration to healthy cycling volunteers; assessment of ovarian hormones, follicular development, endometrial histology, bleeding patterns; format: in vivo, women; conditions: one patient, 10 mg/day, missed 2 days of drug (days 1 and 2) in third treatment cycle
Protocol: For that purpose, health cycling volunteers received 3 months of continuous daily administration of ulipristal acetate (2.5, 5 or 10 mg) or placebo.
Assessment of ovarian hormones, follicular development, endometrial histology, and menstrual bleeding patterns was carried out during the third month of treatment.
This made the inventors think that ulipristal acetate could be used as a contraceptive which could be taken on-demand, rather than everyday as any hormonal contraceptive pill.

[3] = single dose of 50 mg, within 72 hours after unprotected intercourse; cited from earlier work

**Q.** For `CC(=O)O[C@]1(C(C)=O)CC[C@H]2[C@@H]3CCC4=CC(=O)CCC4=C3[C@@H](c3ccc(N(C)C)cc3)C[C@@]21C` [ulipristal acetate, 17α-acetoxy-11β-[4-N,N-dimethylamino-phenyl)-19-norpregna-4,9-diene-3,20-dione], which pregnancy [1] is on record?
**A.** No pregnancy was observed

**Q.** What about the “luteal activity or ovulation” value [2] of the same compound?
**A.** no sign of luteal activity or ovulation

**Q.** What about the “safety and efficacy as emergency contraception” value [3] of the same compound?
**A.** safe and efficacious
